Test results taken from PMC9077138, “An investigation on 3-acetyl-7-methoxy-coumarin Schiff bases and their Ru(II) metallates with potent antiproliferative activity and enhanced LDH and NO release” (RSC Advances, 2018).

Experiments:
P. aeruginosa = experiment: In vitro antibacterial assay (zone of inhibition, MIC); assay type: cell-based, Pseudomonas aeruginosa; settings: P. aeruginosa
Procedure: (§1) The free ligands and their cyclometallated ruthenium(II) carbonyl complexes were screened for their in vitro antimicrobial activity against certain pathogenic bacterial and fungal species at three different concentrations using disc diffusion method.
(§2) Antimicrobial activities of [RuHClCO(PPh3)3], ligands H2L^1–4 and new organometallic Ru(II) complexes (1–4) were evaluated by agar well diffusion method[76] as reported, by taking Staphylococcus aureus, Streptococcus pneumonie, Pseudomonas aeruginosa, Salmonella paratyphi and fungus such as Candida albicans, Trichophyton rubrum, Aspergillus niger, Aspergillus fumigatus and Candida tropicalis. The above said all test organisms were obtained from the MTCC, Chandigarh, India and Microbiological laboratory, Coimbatore, Tamil Nadu, India. The antimicrobial activity of the test compounds was checked with various concentrations (25 μg ml^−1, 50 μg ml^−1 and 100 μg ml^−1) against all the test pathogens. Gentamicin and ketoconazole were used as positive controls to study the antibacterial and antifungal activities respectively. Each experiment was performed in triplicate and the results are represented as average zone of inhibition and minimum inhibitory concentration of all the test pathogens.

S. paratyphi = experiment: as above; assay type: cell-based, Salmonella paratyphi
Excerpt: The free ligands and their cyclometallated ruthenium(II) carbonyl complexes were screened for their in vitro antimicrobial activity against certain pathogenic bacterial and fungal species at three different concentrations using disc diffusion method. […] Tested complexes had better antimicrobial activity than the ligands against all pathogens. This may be explained by Tweedy's chelation theory.[61] Coordination of ligands reduce the polarity of the metal ion essentially by partial sharing of its positive charge with the donor groups within the chelate ring system formed during the coordination and leading to the increase in lipophilic nature of the central metal atom, which favours the effective permeation through the lipid layer of microorganism.[61,62] […] When tested against T. rubrum, the activity of the complexes in the order of 3 > 2 > 1 > 4. In antibacterial studies, the complex 3 was effective against S. aureus followed by complex 2, 1 and 4 and in the case of S. pneumonie the activity of the complexes follows the order of 3 > 1 > 4 > 2. […] When tested against S. paratyphi complex 1 stood out as good followed by the complexes 4, 3 and 2 respectively.
as §2

BSA = molecular target: T1, BSA (Bos taurus, UniProt P02769); experiment: BSA tryptophan fluorescence quenching; assay type: binding, bovine; settings: for Quenching constant kq / Stern–Volmer KSV / number of binding sites n / Binding constant Kbin: BSA; for Binding constant Kbin: Scatchard equation; for quenching of BSA fluorescence intensity at 346 nm: compounds 10–100 μM, BSA 10 μM
T1 construct: purchased HiMedia (Mumbai, India)
Excerpt: The obtained results confirmed the interaction of the ligands and complexes with serum albumins. The absorption spectra of the serum albumins in the absence and presence of ligands H2L^1–4 and the complexes 1–4 are given in Fig. S29 in the ESI. ^† On adding ligands and complexes 1–4 to albumins, the absorbance intensity of serum albumins was decreased with a red shift of 2 nm. The observed changes indicated a static quenching mechanism of serum albumins by the ligands and complexes (1–4). To obtain a quantitative insight into the quenching progression, the Stern–Volmer quenching constant (KSV) and the quenching constant (Kq) were calculated from the Stern–Volmer equation using the Io/ICorrversus [Q] plot (Table 4).[53] The observed linearity in the plots (Fig. 13) indicated the ability of the compounds to quench the emission intensity of serum albumins and the order of quenching constant of the compounds is complex 3 > complex 2 > complex 1 > complex 4 > H2L^3 > H2L^2 > H2L^1 > H2L^4.
Furthermore, the equilibrium binding constant and number of binding sites were evaluated by using the Scatchard equation. The Kbin values were derived from the graph between log[(Fo − F)/F] and log[Q] From the results, we confirmed that the Ru(II) complexes having a large hydrophobic area can interact more efficiently than the ligands with serum albumins via a static pathway. The higher binding affinity of the complexes over the ligands may be due to the efficient binding of protein moiety with the complexed metal ions. Here, the binding affinities of the complexes with serum albumins followed the same order as those with DNA binding studies, complex 3 > complex 2 > complex 1 > complex 4 > H2L^3 > H2L^2 > H2L^1 > H2L^4. Variation in the binding affinity of the compounds with serum albumins depends on the electron-donating ability of the ligand, i.e. the substitution on the N-terminal nitrogen atom. The binding capability of the compounds to serum albumins increased with the increase in electron-donating ability of the substituent on the terminal nitrogen of the coordinated thiosemicarbazone ligand. The obtained quenching constant and binding constant values of these new cyclometallated ruthenium(II) complexes agree well with those reported for other ruthenium(II) complexes.[31,44,54–56] […]
Serum albumin binding study
Bovine Serum Albumin (BSA) and human serum albumin were purchased from Hi Media, The protein binding study was performed by tryptophan fluorescence quenching experiments using bovine serum albumin (BSA, 10 µM) or human serum albumin (HSA, 10 µM) as the substrate in phosphate buffer (pH= 7.2). Quenching of the emission intensity of tryptophan residues of BSA at 346 nm (excitation wavelength at 280 nm)/ HSA at 345 nm (excitation wavelength at 290 nm) was monitored using ligands and complexes as quenchers with increasing concentration (10-100µM). Synchronous fluorescence spectra of BSA or HSA with various concentrations of the complexes were obtained from 300 to 400 nm when ∆λ = 60 nm and from 290 to 500 nm when ∆λ = 15 nm. For synchronous fluorescence spectra, the same concentrations of serum albumins and the compounds were also used and the spectra were measured at two different Δλ values (difference between the excitation and emission wavelengths of BSA), such as 15 and 60 nm. Fluorescence and synchronous measurements were performed using a 1 cm quartz cell on a JASCO FP 6600 spectrofluorimeter.
The quenching data can be analyzed according to the Stern-Volmer equation, […]
Io/Icorr =K SV[Q]+1 Eq (S2) where Iₒ is the emission intensity in the absence of compound, Icorr is the corrected emission intensity in the presence of compound, KSV is the quenching constant and [Q] is the concentration of the compound.
In order to correct the inner filter effect, the following equation used Icorr = Iobs*10 (Aexc+Aem)/2 where Icorr is the corrected fluorescence value, Iobs the measured fluorescence value, Aexc is […]

Candida tropicalis = experiment: In vitro antifungal assay (zone of inhibition, MIC); assay type: cell-based
Procedure: as §1, §2

Aspergillus fumigatus = experiment: as above; assay type: cell-based
Procedure: as §1, §2

Aspergillus niger = experiment: as above; assay type: cell-based
Procedure: as §1, §2

Trichophyton rubrum = experiment: as above; assay type: cell-based
Procedure: as §1, §2

S. aureus = experiment: In vitro antibacterial assay (zone of inhibition, MIC); assay type: cell-based, Staphylococcus aureus; settings: S. aureus
Procedure: as §1, §2

T1 sequence (P02769 25-607): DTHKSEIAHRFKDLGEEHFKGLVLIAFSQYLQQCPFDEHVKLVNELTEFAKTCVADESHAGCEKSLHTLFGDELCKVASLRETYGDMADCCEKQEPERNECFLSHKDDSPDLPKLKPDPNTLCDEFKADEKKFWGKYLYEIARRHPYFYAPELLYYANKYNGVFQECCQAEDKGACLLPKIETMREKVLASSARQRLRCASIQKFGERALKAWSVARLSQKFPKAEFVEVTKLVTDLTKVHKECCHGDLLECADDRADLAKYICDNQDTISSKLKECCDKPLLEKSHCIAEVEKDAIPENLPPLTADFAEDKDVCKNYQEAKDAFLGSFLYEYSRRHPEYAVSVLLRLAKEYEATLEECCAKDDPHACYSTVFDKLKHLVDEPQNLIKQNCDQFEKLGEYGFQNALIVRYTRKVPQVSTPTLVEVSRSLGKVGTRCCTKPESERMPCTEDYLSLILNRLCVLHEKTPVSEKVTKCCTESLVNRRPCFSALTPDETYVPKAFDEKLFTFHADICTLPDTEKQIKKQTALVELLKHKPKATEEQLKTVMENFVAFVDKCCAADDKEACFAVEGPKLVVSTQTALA

Structure (SMILES) | Minimum inhibitory concentration (MIC); head: IC50 VALUES (P. aeruginosa) [µM] | Zone of inhibition (P. aeruginosa; 50 µg/ml) [mm] | Zone of inhibition (P. aeruginosa; 100 µg/ml) [mm] | Zone of inhibition (S. paratyphi; 50 µg/ml) [mm] | Zone of inhibition (S. paratyphi; 100 µg/ml) [mm] | Quenching constant kq (BSA) | Stern–Volmer KSV (BSA) | number of binding sites n (BSA) | Binding constant Kbin (BSA) | quenching of BSA fluorescence intensity at 346 nm (BSA) [%] | Minimum inhibitory concentration (MIC); head: IC50 VALUES (Candida tropicalis) [µM] | Zone of inhibition (Candida tropicalis; 50 µg/ml) [mm] | Zone of inhibition (Candida tropicalis; 100 µg/ml) [mm] | Minimum inhibitory concentration (MIC); head: IC50 VALUES (Aspergillus fumigatus) [µM] | Zone of inhibition (Aspergillus fumigatus; 50 µg/ml) [mm] | Zone of inhibition (Aspergillus fumigatus; 100 µg/ml) [mm] | Minimum inhibitory concentration (MIC); head: IC50 VALUES (Aspergillus niger) [µM] | Zone of inhibition (Aspergillus niger; 50 µg/ml) [mm] | Zone of inhibition (Aspergillus niger; 100 µg/ml) [mm] | Minimum inhibitory concentration (MIC); head: IC50 VALUES (Trichophyton rubrum) [µM] | other results
CCNC1=N[N+]2=C(C)c3[c](c4ccc(OC)cc4oc3=O)[Ru-4]2([C]#[O+])([P+](c2ccccc2)(c2ccccc2)c2ccccc2)([P+](c2ccccc2)(c2ccccc2)c2ccccc2)[S]1 [Complex 3, [Ru(7MAC-etsc)(CO)(PPh3)2]] | 14.46 ± 0.18 | 13.23±0.52 | 17.34±0.45 | 12.53±0.14 | 17.44±0.27 | 1.756 ± 0.080 × 10^12 M^−1 s^−1 | 1.756 ± 0.080 × 10^4 M^−1 | 1.266 ± 0.0290 | 17.49 ± 0.030 × 10^4 M^−1 | 63.19 | 13.37 ± 0.16 | 13.55±0.34 | 17.91±0.31 | 14.44 ± 0.27 | 13.53±0.13 | 18.31±0.21 | 14.44 ± 0.21 | 12.73±0.55 | 18.43±0.12 | 14.97 ± 0.31 | Zone of inhibition (Trichophyton rubrum; 50 µg/ml): 13.25±0.52 mm; Zone of inhibition (Trichophyton rubrum; 100 µg/ml): 17.44±0.61 mm; Minimum inhibitory concentration (MIC); head: IC50 VALUES (S. aureus): 13.14 ± 0.12 µM; Zone of inhibition (S. aureus; 50 µg/ml): 12.04±0.60 mm; Zone of inhibition (S. aureus; 100 µg/ml): 17.14±0.12 mm
CNC1=N[N+]2=C(C)c3[c](c4ccc(OC)cc4oc3=O)[Ru-4]2([C]#[O+])([P+](c2ccccc2)(c2ccccc2)c2ccccc2)([P+](c2ccccc2)(c2ccccc2)c2ccccc2)[S]1 [Complex 2, [Ru(7MAC-mtsc)(CO)(PPh3)2]] | 14.81 ± 0.19 | 12.12±0.13 | 17.95±0.21 | 13.41±0.01 | 18.45±0.51 | 2.382 ± 0.011 × 10^12 M^−1 s^−1 | 2.382 ± 0.011 × 10^4 M^−1 | 1.0478 ± 0.031 | 3.323 ± 0.027 × 10^4 M^−1 | 71.15 | 13.46 ± 0.15 | 12.64±0.15 | 19.52±0.27 | 14.70 ± 0.1 | 12.61±0.71 | 17.36±0.45 | 14.67 ± 0.31 | 11.56±0.24 | 19.63±0.12 | 15.14 ± 0.24 | Zone of inhibition (Trichophyton rubrum; 50 µg/ml): 12.16±0.15 mm; Zone of inhibition (Trichophyton rubrum; 100 µg/ml): 17.45±0.35 mm; Minimum inhibitory concentration (MIC); head: IC50 VALUES (S. aureus): 15.90 ± 0.16 µM; Zone of inhibition (S. aureus; 50 µg/ml): 13.12±0.41 mm; Zone of inhibition (S. aureus; 100 µg/ml): 18.65±0.13 mm
